According to patent US20260097004A1, “PHARMACEUTICAL COMPOSITION FOR TREATING MAST CELL-MEDIATED INFLAMMATORY DISEASES” (priority 2022, published 2026):

Tests used:
LAD2 mast cells = assay: β-hexosaminidase assay of mast cell degranulation stimulated by SP; type: cell-based; conditions: SP stimulating experiment, FIG. 1
Description: An experimental method using a β-hexosaminidase assay comprises the following steps: • 1. a PNAG/HEPES buffer/0.1% Triton-100/glycine solution was prepared at a normal temperature; • 2. LAD2 cell was taken out from an incubator at 37° C. and cell count was read, and then an appropriate amount of cell suspension was taken according to experimental cell requirements (estimated based on 5000-10000/well); • 3. the LAD2 cell suspension was centrifuged for 5 min on a centrifuge at 4° C. at […], and then supernatant was discarded; • 4. cells were evenly mixed in the solution after HEPES buffer was added; • 5. the cell suspension was transferred to a 96-well plate, with 80 ul per well; • 6. a to-be-tested drug Atovaquone was added to a corresponding position according to experiment design, the positions of a positive control SP (neuropeptide substance P), a negative control QWF (MRGPRX2 receptor antagonist) and a blank control were reserved, and each drug was administrated for three repetitions; • 7. the cells were co-incubated with the drug for 30 min; • 8. […]
Detection of m Absorbance
• 12. the degranulation percentage of mast cells was calculated.
According to a formula: degranulation percentage-2×absorbance of supernatant plate/(absorbance of supernatant plate+[…]absorbance of cell lysis plate)×100%

LAD2 cells = assay: Intracellular calcium ion flow experiment (calcium imaging, Fluo-3); type: cell-based; conditions: Atovaquone at different concentrations (0, 1, 10, 100 nM and 1 μM), incubation 30 min; FIG. 3
Description: (§1) An incubation buffer was composed of: 0.5 μl of Fluo-3, 2 μl of Pluronic F-127 and 997.5 μl of CIB (calcium imaging buffer: 125 mM NaCl, 3 mM KCl, 2.5 mM CaCl2, 0.6 mM MgCl2, 10 mM HEPES, 20 mM glucose, 1.2 mM NaHCO3 and 20 mM sucrose, and pH=7.4). Different concentrations (0, 1, 10, 100 nM and 1 μM) of Atovaquone were prepared in the incubation buffer, and an incubation buffer solution without Atovaquone was used as a negative control. LAD2 cells were washed twice with CIB, and then a desired incubation buffer solution was added. After incubation for 30 min, the cells were washed twice with CIB, and then inoculated into a 96-well plate for calcium imaging. For calcium imaging, the cells were magnified 200× and a photo was obtained per second under blue light. After a substance was injected, the cells were confirmed as being responsive if [Ca^2+] rose by at least 50%.

MrgA1 = molecular target: T1, MrgA1 (Mus musculus, UniProt Q91WW5); assay: Calcium ion flow when substance P acts on MrgA1; type: cell-based; conditions: substance P 10 μM acted on MrgA1; cells with vs without Atovaquone; FIG. 2
T1 sequence (Q91WW5 1-304): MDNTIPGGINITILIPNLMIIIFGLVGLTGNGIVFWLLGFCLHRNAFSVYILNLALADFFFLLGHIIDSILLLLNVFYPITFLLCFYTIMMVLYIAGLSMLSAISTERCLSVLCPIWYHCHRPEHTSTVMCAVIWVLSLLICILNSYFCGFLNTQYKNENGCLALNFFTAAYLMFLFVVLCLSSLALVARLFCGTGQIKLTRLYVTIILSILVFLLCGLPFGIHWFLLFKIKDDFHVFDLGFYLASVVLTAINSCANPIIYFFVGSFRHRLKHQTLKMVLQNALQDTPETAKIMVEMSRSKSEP
Description: as §1
(§2) FIG. 2 is a dynamic observation graph showing a calcium ion flow change when a substance P acted on different receptors, i.e., a schematic representation of the substance P acting on MrgA1, MrgX2 and NKIR (5 nM acted on NKIR, 50 nM acted on MrgX2 and 10 μM acted on MrgA1). This image set was photographed every 5 s from left to right for 120 s. In each group of graphs, a column represented cells with Atovaquone, the next column represented cells without Atovaquone.

NKIR = NKIR (Homo sapiens, UniProt P25103); assay: Calcium ion flow when substance P acts on NKIR; type: cell-based; conditions: substance P 5 nM acted on NKIR; cells with vs without Atovaquone; FIG. 2
Sequence of NKIR (P25103 whole entry): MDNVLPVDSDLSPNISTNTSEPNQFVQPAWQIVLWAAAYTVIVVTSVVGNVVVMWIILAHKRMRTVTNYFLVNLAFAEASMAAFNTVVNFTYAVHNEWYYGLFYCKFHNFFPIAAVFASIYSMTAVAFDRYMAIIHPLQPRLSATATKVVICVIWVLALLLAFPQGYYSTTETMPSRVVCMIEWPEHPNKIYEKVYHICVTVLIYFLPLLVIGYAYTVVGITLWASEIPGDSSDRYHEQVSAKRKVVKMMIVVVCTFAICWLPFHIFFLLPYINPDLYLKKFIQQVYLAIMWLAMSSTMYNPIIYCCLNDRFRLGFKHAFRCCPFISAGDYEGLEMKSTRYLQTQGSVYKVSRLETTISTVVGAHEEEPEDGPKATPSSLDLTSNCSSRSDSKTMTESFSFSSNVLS
Description: as §1, §2

[1] = cited from earlier work

O=C1C(O)=C([C@H]2CC[C@H](c3ccc(Cl)cc3)CC2)C(=O)c2ccccc21 [Atovaquone]
inhibition of LAD2 mast cell degranulation compared with QWF (LAD2 mast cells): far superior to QWF
degranulation of LAD2 mast cells (degranulation percentage) (LAD2 mast cells; cells co-incubated with drug 30 min, then SP 30 min): obviously improved
calcium ion flow (LAD2 cells): reduction in calcium ion flow
effect on MrgA1 mediated calcium ion flow (MrgA1): inferior to that on MrgX2
effect on NKIR mediated calcium ion flow (NKIR): inferior to that on MrgX2
drug dependence ([1]; after long-term use): no significant drug dependence phenomenon
side effects ([1]; users in a population): low side effect characteristics
